SMILES	melting point [°C]
COCCc1nc2c(N)nc3cc(OCCn4cccc4)ccc3c2n1CC(C)(C)O	168 to 169
COc1cccc(CNc2ncnc3c2sc2nc(N(C)C)c4c(c23)C(C)(C)CC4)c1OC	91.9 to 93.6
Nc1scc2c(C(=O)NC3CC3)nn(-c3ccc(Cl)cc3)c(=O)c12	188 to 190
CC12CCC3C(CC(Cl)C4(O)CC=CCC34C)C1CC=C2Br (stereo unspecified)	125 to 126
COc1ccc(Cn2cc(C)c3ccc(C(=O)c4ccccc4)cc32)cc1	146 to 147
O=[N+]([O-])c1ccc(SCc2c[nH]cn2)nc1	155 to 156
Cc1cc(N2CCNCC2)ccc1NS(C)(=O)=O	79 to 81
O=C(OC1CNC(=N[N+](=O)[O-])NC1)C1(C2CCCCC2)CCCCC1 (stereo unspecified)	196 to 197
CCNC(=O)c1cc(NC)ccc1[Si](C)(C)C	101 to 102
Cc1ccc(C(C)NC(=O)C2CC(=O)c3cc(F)ccc3O2)cc1 (single isomer, unassigned; (+))	157
Cc1nc(-n2cccc(O)c2=O)sc1C(=O)NCc1ccccc1	225 to 228
Cc1cnc(CSc2cc3ccccc3[nH]2)cc1N1CCCCC1	138 to 139
COc1ccccc1N1CCN(CCn2c(O)nc3sc4c(c3c2=O)CCN(C(C)=O)C4)CC1	135 to 137
CC(=NOCCO)c1ccc(-c2ccc(C(F)(F)F)cc2)cc1	108 to 111
CC(C)(C)OC(=O)N1C(=O)CCC1c1ccc(F)cc1 (stereo unspecified)	117
O=C(CCNC(=O)[C@H](Cc1ccc(-c2ccccc2)cc1)NCP(=O)(Oc1ccccc1)Oc1ccccc1)OCc1ccccc1	83 to 84
NS(=O)(=O)c1cc2nc(O)c(O)nc2c2ccccc12	> 300
CCCc1c(OCCCCCCc2cccc(OCC(=O)O)c2CCC(=O)O)ccc2c1OCCC2=O	127 to 129
COC(=O)c1cnn(O)c1	175
C=CCn1c(NC)n[nH]c1=S	129 to 131
CN(C)C(=O)Nc1c(C(=O)c2ccccc2)[nH]c2cc(Cl)ccc12	222 to 223
O=C(NCc1ccn(-c2cc3nc(C(=O)O)c(=O)[nH]c3cc2C(F)(F)F)c1)Nc1cccc(F)c1	169 to 171
CCOc1nc(Nc2ccc(F)c(Cl)c2)nc(NC2CCN(S(C)(=O)=O)CC2)n1	197 to 199
Clc1ccc2c(c1)NCc1ccccc1S2	125 to 127

SMILES	melting point [°C]
C=CC(=O)Oc1ccc(CNS(C)(=O)=O)cc1	112 to 115
CC(=O)CN1C(=O)C(NC(=O)Nc2cccc(-c3nnn[nH]3)c2)N=C(c2ccccc2F)c2cccc(C)c21 (stereo unspecified)	174 to 190
CNc1ccc(-c2nc(C)c(-c3cccnc3)[nH]2)c(OC)c1	54 to 56
CC(C)C(=O)c1c(C2CC2)nn2ccccc12	108 to 109
CCOC(=O)c1c(Cn2cnc3ccccc32)nc2cc(OC)c(OC)cc2c1-c1ccc(OC)c(OC)c1	99 to 100
CC(=O)N1CCC(c2ccc(S(N)(=O)=O)cc2)CC1	196 to 197
CSC1=Nc2ccncc2S(=O)(=O)N1C	135 to 138
COc1nc(N)nc(-c2ccc(S(C)(=O)=O)cc2)c1-c1ccc(=O)n(C(C)C)n1	148 to 151
CN(C)CC(=O)N1CCC(c2cc(F)ccc2F)(S(=O)(=O)c2ccc(Cl)cc2)CC1	88 to 92
CNC(=O)c1cc(-c2ccc(OC)c(OC)c2)nn(CC(C)C)c1=O	111 to 113
O=C(NC(C(=O)O)c1ccsc1)OCc1ccccc1 (stereo unspecified)	115 to 117
CCCCCCCCS(=O)Cc1c(C)c(O)c(C)c(CS(=O)CCCCCCCC)c1C (stereo unspecified)	175
COC(=O)C(=O)c1occc1/C=C/c1ccccc1	116
O=C1c2ccccc2C(O)N1CCCN1CCN(c2ccc(F)cc2)CC1 (stereo unspecified)	155
CC(C)[C@@H](CO)Nc1nc(Nc2cccc(NS(C)(=O)=O)c2)nc2[nH]ccc12	106 to 109
CC(=O)NN=Cc1ccc2ccccc2n1	218 to 219
COc1ccsc1C(=O)C1C(=O)N(C(N)=O)c2ccc(Cl)cc21 (stereo unspecified)	86 to 88
COC1=CC(O)=CC(OC)C1(OC)c1cc2cccnc2[nH]1 (stereo unspecified)	174 to 176
O=[N+]([O-])c1cc(Cl)c(Oc2ccccc2)c(Cl)c1Oc1ccccc1	164
c1cc2c3c(c1)C[C@@H]1CCC[C@@H]1N3CCNC2 (relative stereo)	180 to 190
O=C1NCc2c(Oc3ccccc3)cccc2N1Cc1ccccc1	171 to 173
COc1nc(C)cnc1N	75 to 76.5
CCOC(=O)c1ccc(S(C)(=O)=O)nc1C(F)(F)F	70 to 72
CC1(C)Oc2ccc(C=O)cc2C(N2CCCC2=O)C1O (stereo unspecified)	196 to 198

SMILES	melting point [°C]
COc1ccc(Nc2nc(NC(C)C)nc(Oc3ccccc3C#CC(C)(C)O)n2)cc1Cl	138 to 140
COC(=O)c1cc(OC)cc2cc(-c3ccc(OC)c(F)c3)oc12	121 to 123
O=C1OCCN1c1ccc(F)c([N+](=O)[O-])c1	135
Cc1nc(N2C[C@H](C)N(Cc3ccc(F)cc3)C2=O)sc1C(N)=O	185 to 186
CN(C(=S)Oc1ccc(Cl)c(C(C)(C)C)c1)c1ccccc1	65 to 67
CCC(=O)NCCC1=C(Cc2ccccc2)Cc2ccc(OC)cc21	149 to 151
O=P(O)(O)C(O)(CC1(c2ccc(Cl)cc2)C=CN(c2ccccc2)N1)P(=O)(O)O (stereo unspecified)	199
O=c1[nH]c2c3ccccc3ccc2n(C2CCCCC2)c1=O	288
O=C(Nc1ccccc1)N1CCc2cc(S(=O)(=O)N3CCN(c4cccc(Cl)c4)CC3)ccc21	177 to 178
CC(C)Oc1nc(N)nc2c1ncn2C1C=CC(CO)C1 (stereo unspecified)	188 to 191
Cn1ccc2ncnc(Oc3ccc(NC(=O)Nc4cccc(OC(F)(F)F)c4)c(Cl)c3)c21	171 to 174
COc1ccnc(CCc2nc3cc(-c4ccc(S(=O)(=O)NCc5ccccc5)cc4)cnc3[nH]2)c1	211 to 212
COc1ccc(OC)c(Cc2n[nH]c3c2c(=O)n(-c2ccccc2)c2ncccc32)c1	248 to 250
NC1=NC(Cl)N(c2c([N+](=O)[O-])cc([N+](=O)[O-])cc2C(F)(F)F)C(Cl)=C1 (stereo unspecified)	198 to 200
COc1ccc(C(=CC#N)c2cccc(N)c2)cc1OC	100 to 101
O=C1COC(Nc2ccc(C(O)(C(F)(F)F)C(F)(F)F)cc2)=N1	272 to 274
NC(=O)N(O)CC1=NOC(c2ccc(F)cc2)C1 (stereo unspecified)	151 to 152
CCCC(=O)Nc1c(C)c2c(c(Cc3ccc(C(C)C)cc3)c1C)OCC2	168 to 169
CCOC(=O)C(O)=Cc1ccc(Cc2ccc(F)cc2)cn1	94 to 96
CCC1(C)CC(=O)C2(C)CCC3c4ccc(OC)cc4CCC3C12 (stereo unspecified)	104 to 107
CSc1c(O[C@H]2CC[C@@H](N3C(=O)c4ccccc4C3=O)CC2)ccc2[nH]ncc12	211 to 212
CCCS(=O)(=O)Nc1cc(OC[C@@H](O)CNC2CCN(c3ccc(C(=O)OCC)cc3)CC2)ccc1O	63 to 65
COc1cc(Cl)c(N=C2NCCN2OCc2ccccc2)c(Cl)c1	90 to 92

From a melting point compilation (Tetko et al.; mined from patent text by program, amines drawn as free bases though some values may be those of a salt)
